Residual activity, inhibition and activity data for two compounds are collected here from ChEMBL document CHEMBL4507278 (2021).

The target of series [1] is Dual specificity mitogen-activated protein kinase kinase 4 (Homo sapiens) (UniProt P45985). The following applies: Compound concentration 1000.0 nM.
The target of series [2] is Muscarinic acetylcholine receptor M2 (Homo sapiens) (UniProt P08172). As to conditions: Compound concentration 10.0 uM; call rule not given here.
Series [3] concerns the target Alpha-1B adrenergic receptor (Homo sapiens) (UniProt P35368). As to conditions: Compound concentration 10.0 uM.
The subject of series [4] is Tyrosine-protein kinase ABL1 (Homo sapiens), P00519 [M351T]. The following applies: Compound concentration 1000.0 nM.
Series [5] has as its target Mitogen-activated protein kinase kinase kinase 3 (Homo sapiens) (UniProt Q99759). The following applies: Compound concentration 1000.0 nM.
For series [6], the target named is Serine/threonine-protein kinase/endoribonuclease IRE1 (Homo sapiens) (UniProt O75460). As to conditions: Compound concentration 1000.0 nM.
Series [7] deals with Epidermal growth factor receptor (Homo sapiens) (UniProt P00533). Description: EGF/HU Eurofins-Panlabs selectivity data (BI). As to conditions: Compound concentration 10.0 uM.
Series [8] has as its target Beta-1 adrenergic receptor (Homo sapiens, UniProt P08588). Description: BETA1/HU Eurofins-Panlabs selectivity data (BI). The following applies: Compound concentration 10.0 uM.
The target of series [9] is Histamine H1 receptor (Homo sapiens) (UniProt P35367). Description: H1/H Eurofins-Panlabs selectivity data (BI). The following applies: Compound concentration 10.0 uM.
In series [10] the target is T1, Alpha-2A adrenergic receptor (Homo sapiens) (UniProt P08913).
T1 sequence (whole entry): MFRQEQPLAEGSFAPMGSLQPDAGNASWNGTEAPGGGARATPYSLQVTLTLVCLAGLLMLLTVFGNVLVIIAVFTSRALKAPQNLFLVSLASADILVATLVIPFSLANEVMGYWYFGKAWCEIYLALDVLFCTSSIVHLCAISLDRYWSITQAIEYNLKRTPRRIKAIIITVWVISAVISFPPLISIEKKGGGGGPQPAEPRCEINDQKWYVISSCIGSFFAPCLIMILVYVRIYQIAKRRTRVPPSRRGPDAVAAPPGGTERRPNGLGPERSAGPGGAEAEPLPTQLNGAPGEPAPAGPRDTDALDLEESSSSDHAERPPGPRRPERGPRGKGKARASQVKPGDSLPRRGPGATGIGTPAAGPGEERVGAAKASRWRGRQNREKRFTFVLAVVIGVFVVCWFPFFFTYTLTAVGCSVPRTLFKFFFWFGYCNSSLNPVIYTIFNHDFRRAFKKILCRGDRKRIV
Description: ALPHA2A/H Eurofins-Panlabs selectivity data (BI). The following applies: Compound concentration 10.0 uM.

Series [11] concerns the target Platelet-activating factor receptor (Homo sapiens) (UniProt P25105). The series is described as follows: PAF/H Eurofins-Panlabs selectivity data (BI). As to conditions: Compound concentration 10.0 uM.
Series [12] addresses Gamma-aminobutyric acid receptor subunit alpha-1 (Rattus norvegicus) (UniProt P62813). Description: GABAACENTR Eurofins-Panlabs selectivity data (BI). The following applies: Compound concentration 10.0 uM.
The target of series [13] is T2, 5-hydroxytryptamine receptor 3A (Homo sapiens) (UniProt P46098).
T2 sequence (whole entry): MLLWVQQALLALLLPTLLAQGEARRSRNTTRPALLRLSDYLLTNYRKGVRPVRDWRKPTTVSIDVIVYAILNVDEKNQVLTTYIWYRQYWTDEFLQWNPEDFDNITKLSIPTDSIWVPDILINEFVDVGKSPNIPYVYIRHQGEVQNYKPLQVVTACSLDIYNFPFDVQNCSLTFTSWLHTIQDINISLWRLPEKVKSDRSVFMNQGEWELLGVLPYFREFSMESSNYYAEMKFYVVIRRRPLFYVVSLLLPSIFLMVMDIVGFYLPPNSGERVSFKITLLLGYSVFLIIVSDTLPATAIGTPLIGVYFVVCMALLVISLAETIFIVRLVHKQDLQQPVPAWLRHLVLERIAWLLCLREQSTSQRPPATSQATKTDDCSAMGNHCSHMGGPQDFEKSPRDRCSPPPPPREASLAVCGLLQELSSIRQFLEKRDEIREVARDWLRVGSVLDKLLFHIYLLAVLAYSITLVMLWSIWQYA
Description: 5HT3/HU Eurofins-Panlabs selectivity data (BI). The following applies: Compound concentration 10.0 uM.

Series [14] deals with Histamine H3 receptor (Homo sapiens) (UniProt Q9Y5N1). Description: H3/H Eurofins-Panlabs selectivity data (BI). The following applies: Compound concentration 10.0 uM.
Series [15] concerns the target D(3) dopamine receptor (Homo sapiens) (UniProt P35462). The following applies: Compound concentration 10.0 uM.
Series [16] concerns the target Neuropeptide Y receptor type 1 (Homo sapiens) (UniProt P25929). Description: Y1/HU Eurofins-Panlabs selectivity data (BI). The following applies: Compound concentration 10.0 uM.
Series [17] has as its target Substance-P receptor (Homo sapiens) (UniProt P25103). Description: NK1/HU Eurofins-Panlabs selectivity data (BI). The following applies: Compound concentration 10.0 uM.
Series [18] deals with Glutamate receptor ionotropic, kainate 1 (Rattus norvegicus) (UniProt P22756). Description: KAINATE/R Eurofins-Panlabs selectivity data (BI). As to conditions: Compound concentration 10.0 uM.
Sequence of Glutamate receptor ionotropic, kainate 1 (Rattus norvegicus) (P22756 whole entry): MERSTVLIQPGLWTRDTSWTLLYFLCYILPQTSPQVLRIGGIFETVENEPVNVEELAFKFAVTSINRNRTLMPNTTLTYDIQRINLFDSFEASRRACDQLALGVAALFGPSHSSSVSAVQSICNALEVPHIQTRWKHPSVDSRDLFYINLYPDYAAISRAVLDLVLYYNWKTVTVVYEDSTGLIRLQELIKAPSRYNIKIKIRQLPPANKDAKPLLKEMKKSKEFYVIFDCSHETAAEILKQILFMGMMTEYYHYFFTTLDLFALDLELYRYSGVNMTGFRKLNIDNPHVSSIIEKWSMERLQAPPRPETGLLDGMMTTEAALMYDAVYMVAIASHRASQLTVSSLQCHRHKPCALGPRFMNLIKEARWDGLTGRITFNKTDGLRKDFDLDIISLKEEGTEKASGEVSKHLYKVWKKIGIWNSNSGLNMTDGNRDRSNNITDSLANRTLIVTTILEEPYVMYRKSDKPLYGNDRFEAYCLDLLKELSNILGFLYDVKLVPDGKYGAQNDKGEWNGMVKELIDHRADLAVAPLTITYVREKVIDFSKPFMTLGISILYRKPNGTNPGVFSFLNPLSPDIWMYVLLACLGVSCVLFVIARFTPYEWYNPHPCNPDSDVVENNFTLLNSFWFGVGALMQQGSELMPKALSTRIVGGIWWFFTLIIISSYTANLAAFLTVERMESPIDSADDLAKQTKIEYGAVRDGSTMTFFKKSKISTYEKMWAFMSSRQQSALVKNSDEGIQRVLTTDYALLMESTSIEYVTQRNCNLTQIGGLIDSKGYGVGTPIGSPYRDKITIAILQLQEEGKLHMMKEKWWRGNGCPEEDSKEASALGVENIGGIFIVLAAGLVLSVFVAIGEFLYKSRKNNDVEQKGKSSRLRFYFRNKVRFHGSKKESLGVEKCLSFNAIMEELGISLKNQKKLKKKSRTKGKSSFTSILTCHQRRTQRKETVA
Series [19] deals with Voltage-dependent L-type calcium channel subunit alpha-1C (DHP site) (Rattus norvegicus, UniProt P22002). Description: CA+/DHPSI/RA Eurofins-Panlabs selectivity data (BI). As to conditions: compound concentration 10 uM, read-out: % Ctrl.
Series [20] concerns the target Delta-type opioid receptor (Homo sapiens) (UniProt P41143). The series is described as follows: DELTA/HU Eurofins-Panlabs selectivity data (BI). The following applies: Compound concentration 10.0 uM.
Series [21] addresses Kappa-type opioid receptor (Homo sapiens) (UniProt P41145). Description: KAPPA/HU Eurofins-Panlabs selectivity data (BI). The following applies: Compound concentration 10.0 uM.
Series [22] addresses Voltage-dependent L-type calcium channel subunit alpha-1C (diltiazem site) (Rattus norvegicus, UniProt P22002). Description: CA+/DILSI/RA Eurofins-Panlabs selectivity data (BI). The following applies: compound concentration 10 uM, read-out: % Ctrl.
In series [23] the target is Thyroid hormone receptor alpha (Rattus norvegicus) (UniProt P63059). Description: THYROID HORM Eurofins-Panlabs selectivity data (BI). The following applies: Compound concentration 10.0 uM.
Series [24] has as its target 5-hydroxytryptamine receptor 2B (Homo sapiens) (UniProt P41595). The series is described as follows: 5HT2B/HU Eurofins-Panlabs selectivity data (BI). The following applies: Compound concentration 10.0 uM.
In series [25] the target is D(2) dopamine receptor (Homo sapiens) (UniProt P14416). Description: D2S/HU Eurofins-Panlabs selectivity data (BI). As to conditions: Compound concentration 10.0 uM.
The target in series [26] is P2X purinoceptor (Oryctolagus cuniculus) (UniProt G1U3D6). The series is described as follows: P2X/RB Eurofins-Panlabs selectivity data (BI). As to conditions: Compound concentration 10.0 uM.
Sequence of P2X purinoceptor (Oryctolagus cuniculus) (G1U3D6 as listed by the source): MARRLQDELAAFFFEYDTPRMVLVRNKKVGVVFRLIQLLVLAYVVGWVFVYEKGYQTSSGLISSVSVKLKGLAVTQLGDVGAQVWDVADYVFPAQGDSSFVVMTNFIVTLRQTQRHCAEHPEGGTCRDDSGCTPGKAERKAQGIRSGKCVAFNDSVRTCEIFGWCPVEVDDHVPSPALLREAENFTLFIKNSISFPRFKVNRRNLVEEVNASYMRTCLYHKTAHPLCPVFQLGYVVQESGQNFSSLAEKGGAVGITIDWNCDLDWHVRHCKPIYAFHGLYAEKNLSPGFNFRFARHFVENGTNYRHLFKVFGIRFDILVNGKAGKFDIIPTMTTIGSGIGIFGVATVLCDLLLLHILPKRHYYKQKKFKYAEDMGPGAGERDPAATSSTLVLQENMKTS
Series [27] deals with Glutamate receptor ionotropic, NMDA 2A (Rattus norvegicus) (UniProt Q00959). The series is described as follows: NMDAPHSI/R Eurofins-Panlabs selectivity data (BI). The following applies: Compound concentration 10.0 uM.
The target of series [28] is Endothelin receptor type B (Homo sapiens) (UniProt P24530). The series is described as follows: ETB/HUM Eurofins-Panlabs selectivity data (BI). As to conditions: Compound concentration 10.0 uM.
Sequence of Endothelin receptor type B (Homo sapiens) (P24530 whole entry): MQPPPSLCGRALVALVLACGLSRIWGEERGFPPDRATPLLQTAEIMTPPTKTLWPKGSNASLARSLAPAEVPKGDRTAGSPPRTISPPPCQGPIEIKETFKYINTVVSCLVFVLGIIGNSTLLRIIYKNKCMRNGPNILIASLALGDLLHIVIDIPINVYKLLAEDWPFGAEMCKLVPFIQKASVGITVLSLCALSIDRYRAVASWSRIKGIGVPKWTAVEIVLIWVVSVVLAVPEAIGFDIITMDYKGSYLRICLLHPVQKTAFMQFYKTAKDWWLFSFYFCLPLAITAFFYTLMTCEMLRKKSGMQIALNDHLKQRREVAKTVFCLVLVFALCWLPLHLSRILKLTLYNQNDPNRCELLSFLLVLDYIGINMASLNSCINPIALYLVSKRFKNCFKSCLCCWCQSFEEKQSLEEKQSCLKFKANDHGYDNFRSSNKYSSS
The target in series [29] is Sodium- and chloride-dependent GABA transporter 1 (Rattus norvegicus) (UniProt P23978). Description: GABATRANS/RA Eurofins-Panlabs selectivity data (BI). As to conditions: Compound concentration 10.0 uM.
Series [30] addresses Estrogen receptor (Homo sapiens) (UniProt P03372). The series is described as follows: ERALPHA/H Eurofins-Panlabs selectivity data (BI). As to conditions: Compound concentration 10.0 uM.
The target of series [31] is Muscarinic acetylcholine receptor M3 (Homo sapiens) (UniProt P20309). The series is described as follows: M3/HU Eurofins-Panlabs selectivity data (BI). As to conditions: Compound concentration 10.0 uM.
The target in series [32] is B2 bradykinin receptor (Homo sapiens) (UniProt P30411). Description: B2/H Eurofins-Panlabs selectivity data (BI). The following applies: filed as antagonist, Compound concentration 10.0 uM.
Sequence of B2 bradykinin receptor (Homo sapiens) (P30411 whole entry): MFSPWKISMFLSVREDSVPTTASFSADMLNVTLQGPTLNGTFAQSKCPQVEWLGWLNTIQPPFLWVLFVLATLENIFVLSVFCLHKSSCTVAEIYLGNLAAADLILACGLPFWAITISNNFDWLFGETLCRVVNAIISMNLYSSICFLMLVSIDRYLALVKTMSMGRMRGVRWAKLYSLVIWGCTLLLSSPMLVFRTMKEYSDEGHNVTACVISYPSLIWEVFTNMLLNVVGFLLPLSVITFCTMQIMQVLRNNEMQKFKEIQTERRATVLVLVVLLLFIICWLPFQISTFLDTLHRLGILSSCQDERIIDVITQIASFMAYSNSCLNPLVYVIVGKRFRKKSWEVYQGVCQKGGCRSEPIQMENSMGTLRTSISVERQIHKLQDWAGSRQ

SMILES strings stand for the structures.

Sequence of Estrogen receptor (Homo sapiens) (P03372 whole entry): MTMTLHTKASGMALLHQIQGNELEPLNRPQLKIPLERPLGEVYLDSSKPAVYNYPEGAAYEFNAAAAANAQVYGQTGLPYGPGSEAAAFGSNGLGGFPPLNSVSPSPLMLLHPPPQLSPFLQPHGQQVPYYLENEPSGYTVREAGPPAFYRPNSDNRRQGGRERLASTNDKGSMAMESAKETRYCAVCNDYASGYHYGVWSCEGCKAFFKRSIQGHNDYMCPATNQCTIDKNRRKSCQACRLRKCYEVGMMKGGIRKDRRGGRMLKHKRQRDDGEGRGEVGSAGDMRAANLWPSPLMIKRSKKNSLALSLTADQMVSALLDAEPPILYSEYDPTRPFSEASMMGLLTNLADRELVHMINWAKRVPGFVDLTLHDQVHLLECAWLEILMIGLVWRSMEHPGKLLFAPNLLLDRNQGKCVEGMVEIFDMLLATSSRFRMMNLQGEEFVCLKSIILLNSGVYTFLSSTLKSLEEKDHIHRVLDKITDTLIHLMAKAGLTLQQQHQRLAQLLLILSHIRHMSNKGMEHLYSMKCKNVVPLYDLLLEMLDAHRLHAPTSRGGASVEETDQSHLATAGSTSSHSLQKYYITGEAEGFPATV
Sequence of Platelet-activating factor receptor (Homo sapiens) (P25105 whole entry): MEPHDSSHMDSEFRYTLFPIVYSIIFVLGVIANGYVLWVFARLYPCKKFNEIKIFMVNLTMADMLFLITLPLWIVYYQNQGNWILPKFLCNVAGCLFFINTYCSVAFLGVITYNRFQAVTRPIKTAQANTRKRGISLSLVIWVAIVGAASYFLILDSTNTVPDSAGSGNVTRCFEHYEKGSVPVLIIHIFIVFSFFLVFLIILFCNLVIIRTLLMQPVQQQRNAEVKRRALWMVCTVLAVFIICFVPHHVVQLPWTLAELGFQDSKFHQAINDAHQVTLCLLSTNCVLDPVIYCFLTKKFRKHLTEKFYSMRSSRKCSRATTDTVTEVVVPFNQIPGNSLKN
Sequence of Gamma-aminobutyric acid receptor subunit alpha-1 (Rattus norvegicus) (P62813 whole entry): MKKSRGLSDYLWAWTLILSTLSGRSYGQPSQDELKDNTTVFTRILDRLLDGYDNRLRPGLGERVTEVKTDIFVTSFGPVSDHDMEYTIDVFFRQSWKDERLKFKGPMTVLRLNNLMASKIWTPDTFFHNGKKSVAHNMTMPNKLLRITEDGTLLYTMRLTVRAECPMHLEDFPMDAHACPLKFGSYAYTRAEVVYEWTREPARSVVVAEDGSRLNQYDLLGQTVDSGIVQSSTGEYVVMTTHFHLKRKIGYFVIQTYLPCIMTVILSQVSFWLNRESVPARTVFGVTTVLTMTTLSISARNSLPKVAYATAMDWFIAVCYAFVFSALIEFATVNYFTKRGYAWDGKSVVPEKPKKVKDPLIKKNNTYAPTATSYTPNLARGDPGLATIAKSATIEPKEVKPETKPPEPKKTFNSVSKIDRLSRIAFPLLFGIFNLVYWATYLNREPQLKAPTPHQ
Sequence of Delta-type opioid receptor (Homo sapiens) (P41143 whole entry): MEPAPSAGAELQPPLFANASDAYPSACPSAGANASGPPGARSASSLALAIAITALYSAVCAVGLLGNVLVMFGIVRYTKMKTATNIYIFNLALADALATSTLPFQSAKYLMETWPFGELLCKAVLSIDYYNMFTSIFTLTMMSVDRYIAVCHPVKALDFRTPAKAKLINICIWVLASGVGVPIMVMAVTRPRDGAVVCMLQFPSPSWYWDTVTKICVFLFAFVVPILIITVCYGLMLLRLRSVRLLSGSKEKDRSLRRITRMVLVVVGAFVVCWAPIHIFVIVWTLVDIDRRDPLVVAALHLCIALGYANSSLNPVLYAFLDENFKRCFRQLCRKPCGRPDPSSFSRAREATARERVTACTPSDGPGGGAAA
Sequence of Alpha-1B adrenergic receptor (Homo sapiens) (P35368 whole entry): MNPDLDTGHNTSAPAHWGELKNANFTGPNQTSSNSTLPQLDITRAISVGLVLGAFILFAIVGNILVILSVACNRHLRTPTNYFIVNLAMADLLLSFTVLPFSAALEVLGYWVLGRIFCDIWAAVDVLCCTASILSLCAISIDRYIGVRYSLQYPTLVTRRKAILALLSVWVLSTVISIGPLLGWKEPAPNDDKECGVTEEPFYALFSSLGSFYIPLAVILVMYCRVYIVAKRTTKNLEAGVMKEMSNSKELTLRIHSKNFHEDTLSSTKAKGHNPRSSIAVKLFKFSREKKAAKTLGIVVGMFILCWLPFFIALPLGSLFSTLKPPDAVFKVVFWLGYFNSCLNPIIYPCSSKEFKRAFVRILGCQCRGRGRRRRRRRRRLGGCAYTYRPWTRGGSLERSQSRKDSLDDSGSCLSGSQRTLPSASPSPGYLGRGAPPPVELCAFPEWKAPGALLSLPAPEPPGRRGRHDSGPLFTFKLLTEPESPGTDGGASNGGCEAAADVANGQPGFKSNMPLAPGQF
Sequence of D(3) dopamine receptor (Homo sapiens) (P35462 whole entry): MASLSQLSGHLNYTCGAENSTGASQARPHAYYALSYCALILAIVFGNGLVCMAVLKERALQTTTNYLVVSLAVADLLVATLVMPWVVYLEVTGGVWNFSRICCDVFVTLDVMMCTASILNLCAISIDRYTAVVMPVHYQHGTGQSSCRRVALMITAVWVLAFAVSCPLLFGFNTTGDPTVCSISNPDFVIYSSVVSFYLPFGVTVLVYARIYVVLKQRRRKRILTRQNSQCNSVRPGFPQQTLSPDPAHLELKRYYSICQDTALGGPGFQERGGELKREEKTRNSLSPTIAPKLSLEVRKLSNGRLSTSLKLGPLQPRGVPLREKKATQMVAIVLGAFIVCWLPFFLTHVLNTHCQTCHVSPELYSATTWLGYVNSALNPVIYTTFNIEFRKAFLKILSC

Consider `CS(=O)(=O)NCC[C@H](NC(=O)c1cncc2c1cnn2-c1ccc(F)cc1)c1ccnc(S(C)(=O)=O)c1` [BI 9307], for which the residual activity in series [1], in [4], in [5] and in [6] was 100% in each case. Moreover, the inhibition in [2] was 17.4%; in [3] it was 15.8%.

As to `CS(=O)(=O)c1cc(C2(NC(=O)c3cncc4c3cnn4-c3ccc(F)cc3)CC2)ccn1` [BI 639667], the residual activity in series [7] was 55%; in [8], 95%; in series [9], 100%; in series [10], 79%; in series [11], 93%; in series [12], 104%. The residual activity in series [13] was 124%; in series [14], 87%; in [16], 101%; in series [17], 95%; in series [18], 91%; in series [20] it was 91%. In addition, the residual activity in [21] was 101%; in [23], 74%; in series [24], 93%; in [25] it was 93%; in [26], 101%; in [27], 93%. The residual activity is 97% in series [28]; 89% in series [29]; 100% in series [30]; 94% in series [31]; 100% in [32]. In addition, in series [15], the inhibition is 17.6%. The activity at 10 µM in series [19] is on record as 71% (not active); in [22], 58% (not active).

Broadly, the inhibition is how much of the control response was suppressed.
